For series [1], the target named is T1, human GPBAR1 (Homo sapiens, UniProt Q8TDU6).
T1 construct: expressed in transfected cells; host or cells: HEK-293T cells, transient transfection (Fugene HD)
T1 sequence (Q8TDU6 1-330): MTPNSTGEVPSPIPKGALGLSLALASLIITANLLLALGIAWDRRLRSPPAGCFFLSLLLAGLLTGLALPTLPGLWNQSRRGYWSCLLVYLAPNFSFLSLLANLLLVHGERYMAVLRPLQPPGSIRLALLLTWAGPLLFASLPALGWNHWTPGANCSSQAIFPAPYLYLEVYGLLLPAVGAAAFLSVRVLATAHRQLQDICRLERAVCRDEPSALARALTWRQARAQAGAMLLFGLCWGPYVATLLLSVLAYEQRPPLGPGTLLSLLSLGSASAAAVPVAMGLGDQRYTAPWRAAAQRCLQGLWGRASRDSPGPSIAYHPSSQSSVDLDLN
Nature of the series: GPBAR1 CRE-luciferase reporter transactivation assay in HEK-293T cells. The conditions noted are these: HEK-293T; compound 10 µM relative to TLCA (10 μM) as 100, CRE transactivation, HEK293T cells; read-out: GPBAR1 Eff (%) maximum efficacy. The series is classed as cell-based. The protocol:
GPBAR1. […] At 18 h post stimulations, cellular lysates were assayed for luciferase and Renilla activities using the Dual-Luciferase Reporter assay system (E1980, Promega Madison WI). Luminescence was measured using Glomax 20/20 luminometer (Promega, Madison WI). Luciferase activities were normalized with Renilla activities.
Agonistic activities of compounds on GPBAR1 were compared to TLCA, which was set as 100%.

Series [2] concerns the target T2, Human CysLT1 (LTD4) (Homo sapiens, UniProt Q9Y271).
T2 construct: Eurofins Cerep-Panlabs (France), contract assay
T2 sequence (Q9Y271 1-337): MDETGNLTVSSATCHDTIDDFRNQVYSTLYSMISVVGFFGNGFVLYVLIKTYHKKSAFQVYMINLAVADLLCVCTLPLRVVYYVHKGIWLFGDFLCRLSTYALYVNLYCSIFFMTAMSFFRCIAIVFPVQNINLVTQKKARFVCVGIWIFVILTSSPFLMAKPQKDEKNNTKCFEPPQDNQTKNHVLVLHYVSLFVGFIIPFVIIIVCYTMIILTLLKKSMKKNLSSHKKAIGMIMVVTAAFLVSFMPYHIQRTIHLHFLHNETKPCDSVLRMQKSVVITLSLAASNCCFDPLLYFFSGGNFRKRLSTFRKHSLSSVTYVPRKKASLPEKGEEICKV
Nature of the series: Human CysLT1 (LTD4) antagonist effect cellular functional assay (Ca2+ fluorescence, Eurofins Cerep-Panlabs). The series is classed as cell-based. The note with it: for IC50: 0.1 nM LTD4. The protocol:
Human CysLT1 (LTD4) (h) (antagonist effect) Cellular Functional Assay. These assays were performed at Eurofins Cerep-Panlabs (France). The cells were suspended in DMEM buffer (Invitrogen) and then distributed in microplates at a density of 3.104 cells/well. […] Thereafter, the assay plates are positioned in a microplate reader (CellLux, PerkinElmer), which was used for the addition of the test compound or HBSS buffer, then 5 min later, 0.1 nM LTD4 or HBSS buffer (basal control), and measured the changes in fluorescence intensity, which varies proportionally to the free cytosolic Ca^2+-ion concentration.

On the set-up of series [3]: method as in Fiorillo et al., 2021. The conditions noted are these: aqueous, pH 7.4; ref Fiorillo et al., 2021; cited from earlier work.
Details of series [4]: method as in Fiorillo et al., 2021. The note with it: pH 7.4; ref Fiorillo et al., 2021; cited from earlier work.
On the set-up of series [5]: method as in Fiorillo et al., 2021. The note with it: ref Fiorillo et al., 2021; cited from earlier work.
Details of series [6]: method as in Fiorillo et al., 2021. The note with it: ref Fiorillo et al., 2021; cited from earlier work. The source holds these as a separate data set.
[7] abbreviates: antagonist effect, read-out: CysLT1R IC50.

Molecules are shown by their SMILES. In brackets after ≈: the same amount, converted by molar mass. Read-outs that look alike come from different tables or passages of the source.

Take `OCc1ccc(-c2ccc(OCc3ccc4ccccc4n3)cc2)cc1` [Compound 6, (4'-(quinolin-2-ylmethoxy)-[1,1′-biphenyl]-4-yl)-methanol]: the Emax in series [1] is 64.9 ± 13%. For the same compound, the “CysLT1R efficacy (percent inhibition of the control response to 0.1 nM LTD4)” value in series [2] (antagonist effect) is 0.8 ± 1.5%.
Consider `OCCCCCOc1cccc(OCc2ccc3ccccc3n2)c1` [Compound 9, 5-(3-(quinolin-2-ylmethoxy)phenoxy)-pentan-1-ol], for which, in series [1], the Emax was 30.8 ± 7.5%. The “CysLT1R efficacy (percent inhibition of the control response to 0.1 nM LTD4)” value in series [2] (antagonist effect) is 106.9 ± 1.6%. The 50% inhibitory concentration (IC50) in series [2] (setting [7]) came out at 360 ± 580 nM.
Take `COC(=O)c1cccc(-c2ccc(OCc3ccc4ccccc4n3)cc2)c1` [Compound 1, Methyl 4'-(quinolin-2-ylmethoxy)-[1,1′-biphenyl]-3-carboxylate]: the Emax in series [1] was determined as 56.9 ± 7.8%.
The same measure, in the same setting: the figure for `COC(=O)c1ccc(-c2ccc(OCc3ccc4ccccc4n3)cc2)cc1` [Compound 4, Methyl 4'-(quinolin-2-ylmethoxy)-[1,1′-biphenyl]-4-carboxylate] is 13.5 ± 1%.
Regarding `O=C(O)CCCOc1cccc(OCc2ccc3ccccc3n2)c1` [Compound 11, 4-(3-(quinolin-2-ylmethoxy)phenoxy)-butanoic acid], in series [1], the Emax came to 18.3 ± 4.8%. For the same compound, the “CysLT1R efficacy (percent inhibition of the control response to 0.1 nM LTD4)” value in series [2] (antagonist effect) is 92.8 ± 2.3%.
Consider `O=C(O)c1ccc(-c2ccc(OCc3ccc4ccccc4n3)cc2)cc1` [Compound 5, 4'-(quinolin-2-ylmethoxy)-[1,1′-biphenyl]-4-carboxylic acid], for which the Emax in series [1] is 36.7 ± 3%.
On to `COC(=O)CCCCOc1cccc(OCc2ccc3ccccc3n2)c1` [Compound 7], for which, in series [1], the Emax came out at 20.5 ± 2.4%. Besides, the “CysLT1R efficacy (percent inhibition of the control response to 0.1 nM LTD4)” value in series [2] (antagonist effect) amounted to 76 ± 9.6%. Also, the IC50 in series [2] (setting [7]) was 1680 ± 280 nM.
As for `O=C(O)CCCCOc1cccc(OCc2ccc3ccccc3n2)c1` [Compound 8], in series [1], the Emax came to 12 ± 1.3%. In addition, the “CysLT1R efficacy (percent inhibition of the control response to 0.1 nM LTD4)” value in series [2] (antagonist effect) worked out at 99.6 ± 2.0%. In addition, in series [2] (setting [7]), the half-inhibitory concentration (IC50) amounted to 900 ± 500 nM.
`CCCCCC(O)c1cccc(OCc2ccc3ccccc3n2)c1` (stereo not drawn) [REV5901, alpha-pentyl-3-[2-quinolinylmethoxy] benzyl alcohol] registered an IC50 in series [2] (CysLT1R IC50, antagonist effect) of 2500 ± 1200 nM. Moreover, the Solubility in series [3] was 39.3 µM (≈ 13.2 µg/mL). Also, the LogD in series [4] was 3.1. Also, in series [5], the “Microsomes Clint” value was 63 μl/min/mg protein and the “Microsomes t1/2” value is 37 min. In addition, in series [6], the “S9 fraction Clint” value is reported as 40 μl/min/mg protein and the “S9 fraction t1/2” value is given as 57 min.
As for `OCc1cccc(-c2ccc(OCc3ccc4ccccc4n3)cc2)c1` [Compound 3, (4'-(quinolin-2-ylmethoxy)-[1,1′-biphenyl]-3-yl)-methanol], the Emax in series [1] came out at 2.1 ± 0.06%. The “CysLT1R efficacy (percent inhibition of the control response to 0.1 nM LTD4)” value in series [2] (antagonist effect) turned out to be 59 ± 3.6%.
With `COC(=O)CCCOc1cccc(OCc2ccc3ccccc3n2)c1` [Compound 10, Methyl 4-(3-(quinolin-2-ylmethoxy)phenoxy)-butanoate], the Emax in series [1] amounted to 20.2 ± 4.5%. Also, the “CysLT1R efficacy (percent inhibition of the control response to 0.1 nM LTD4)” value in series [2] (antagonist effect) was determined as 92.1 ± 3.4%. In series [2] (setting [7]), the IC50 was 1550 ± 430 nM.
For `OCCCCOc1cccc(OCc2ccc3ccccc3n2)c1` [Compound 12, 4-(3-(quinolin-2-ylmethoxy)phenoxy)-butan-1-ol], the Emax in series [1] was 12.8 ± 3.3%. Moreover, in series [2] (antagonist effect), the “CysLT1R efficacy (percent inhibition of the control response to 0.1 nM LTD4)” value is 108.6 ± 1.8%. Besides, the IC50 in series [2] (setting [7]) was found to be 310 ± 240 nM.

(Values after paper PMC9085577, “Discovery of a Potent and Orally Active Dual GPBAR1/CysLT1R Modulator for the Treatment of Metabolic Fatty Liver Disease” (Frontiers in Pharmacology, 2022).)
